Consider 11 compounds from patent US11447466B2, “Substituted indole compounds useful as inhibitors of TLR7/8/9” (BRISTOL-MYERS SQUIBB COMPANY, priority 2017, dated 2022).

For orientation: IC50 means the concentration that inhibits the measured activity by half.

Format in all cases: cell-based
Assay [1] addresses T1, human TLR7 (Homo sapiens, UniProt Q9NYK1).
T1 construct: host or cells: HEK-Blue cells
T1 sequence (Q9NYK1 27-1049): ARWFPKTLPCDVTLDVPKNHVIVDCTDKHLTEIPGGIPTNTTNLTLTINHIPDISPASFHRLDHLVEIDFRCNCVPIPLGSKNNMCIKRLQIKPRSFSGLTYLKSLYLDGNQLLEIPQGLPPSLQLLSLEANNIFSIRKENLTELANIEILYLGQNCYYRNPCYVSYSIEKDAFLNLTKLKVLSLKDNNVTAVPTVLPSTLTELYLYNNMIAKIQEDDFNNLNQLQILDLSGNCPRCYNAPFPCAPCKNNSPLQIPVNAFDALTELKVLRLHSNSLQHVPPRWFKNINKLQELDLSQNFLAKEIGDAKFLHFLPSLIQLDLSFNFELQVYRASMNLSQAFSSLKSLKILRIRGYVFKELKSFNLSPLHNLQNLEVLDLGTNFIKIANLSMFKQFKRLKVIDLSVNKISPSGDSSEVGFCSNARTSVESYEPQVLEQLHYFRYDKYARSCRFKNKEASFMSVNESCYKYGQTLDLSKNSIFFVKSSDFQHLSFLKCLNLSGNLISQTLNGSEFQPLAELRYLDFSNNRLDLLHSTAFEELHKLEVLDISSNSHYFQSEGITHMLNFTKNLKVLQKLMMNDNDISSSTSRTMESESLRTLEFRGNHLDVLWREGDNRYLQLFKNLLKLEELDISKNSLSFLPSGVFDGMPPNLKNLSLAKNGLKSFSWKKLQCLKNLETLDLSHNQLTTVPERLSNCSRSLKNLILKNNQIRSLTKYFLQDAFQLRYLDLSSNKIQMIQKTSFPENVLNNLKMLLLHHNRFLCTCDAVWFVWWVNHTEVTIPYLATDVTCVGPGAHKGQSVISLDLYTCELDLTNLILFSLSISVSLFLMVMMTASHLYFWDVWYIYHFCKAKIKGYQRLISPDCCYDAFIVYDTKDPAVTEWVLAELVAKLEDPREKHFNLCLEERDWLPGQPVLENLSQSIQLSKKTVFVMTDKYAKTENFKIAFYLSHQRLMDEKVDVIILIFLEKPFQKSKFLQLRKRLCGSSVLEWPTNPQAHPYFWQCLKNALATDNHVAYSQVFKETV
In words: TLR7 inhibition reporter assay (HEK-Blue SEAP reporter, gardiquimod stimulation). The note with it: HEK-Blue cells overexpressing human TLR7, SEAP reporter, gardiquimod 7.5 μM, 22 hour incubation. As for the experimental part:
(§1) TLR7/8/9 Inhibition Reporter Assays
(§2) HEK-Blue™-cells (Invivogen) overexpressing human TLR7, TLR8 or TLR9 receptors were used for screening inhibitors of these receptors using an inducible SEAP (secreted embryonic alkaline phosphatase) reporter gene under the control of the IFN-β minimal promoter fused to five NF-κB and AP-1-binding sites. Briefly, cells are seeded into Greiner 384 well plates (15000 cells per well for TLR7, 20,000 for TLR8 and 25,000 for TLR9) and then treated with test compounds in DMSO to yield a final dose response concentration range of 0.05 nM-50 μM. After a 30 minute compound pre-treatment at room temperature, the cells are then stimulated with a TLR7 ligand (gardiquimod at a final concentration of 7.5 μM), TLR8 ligand (R848 at a final concentration of 15.9 μM) or TLR9 ligand (ODN2006 at a final concentration of 5 nM) to activate NF-κB and AP-1 which induce the production of SEAP. After a 22 hour incubation at 37° C., 5% CO2, SEAP levels are determined with the addition of HEK-Blue™ Detection reagent (Invivogen), a cell culture medium that allows for detection of SEAP, according to manufacturer's specifications. The percent inhibition is determined as the % reduction in the HEK-Blue signal present in wells treated with agonist plus DMSO alone compared to wells treated with a known inhibitor.

The target of assay [2] is T2, human TLR8 (Homo sapiens, UniProt Q9NR97).
T2 construct: host or cells: HEK-Blue cells
T2 sequence (Q9NR97 27-1041): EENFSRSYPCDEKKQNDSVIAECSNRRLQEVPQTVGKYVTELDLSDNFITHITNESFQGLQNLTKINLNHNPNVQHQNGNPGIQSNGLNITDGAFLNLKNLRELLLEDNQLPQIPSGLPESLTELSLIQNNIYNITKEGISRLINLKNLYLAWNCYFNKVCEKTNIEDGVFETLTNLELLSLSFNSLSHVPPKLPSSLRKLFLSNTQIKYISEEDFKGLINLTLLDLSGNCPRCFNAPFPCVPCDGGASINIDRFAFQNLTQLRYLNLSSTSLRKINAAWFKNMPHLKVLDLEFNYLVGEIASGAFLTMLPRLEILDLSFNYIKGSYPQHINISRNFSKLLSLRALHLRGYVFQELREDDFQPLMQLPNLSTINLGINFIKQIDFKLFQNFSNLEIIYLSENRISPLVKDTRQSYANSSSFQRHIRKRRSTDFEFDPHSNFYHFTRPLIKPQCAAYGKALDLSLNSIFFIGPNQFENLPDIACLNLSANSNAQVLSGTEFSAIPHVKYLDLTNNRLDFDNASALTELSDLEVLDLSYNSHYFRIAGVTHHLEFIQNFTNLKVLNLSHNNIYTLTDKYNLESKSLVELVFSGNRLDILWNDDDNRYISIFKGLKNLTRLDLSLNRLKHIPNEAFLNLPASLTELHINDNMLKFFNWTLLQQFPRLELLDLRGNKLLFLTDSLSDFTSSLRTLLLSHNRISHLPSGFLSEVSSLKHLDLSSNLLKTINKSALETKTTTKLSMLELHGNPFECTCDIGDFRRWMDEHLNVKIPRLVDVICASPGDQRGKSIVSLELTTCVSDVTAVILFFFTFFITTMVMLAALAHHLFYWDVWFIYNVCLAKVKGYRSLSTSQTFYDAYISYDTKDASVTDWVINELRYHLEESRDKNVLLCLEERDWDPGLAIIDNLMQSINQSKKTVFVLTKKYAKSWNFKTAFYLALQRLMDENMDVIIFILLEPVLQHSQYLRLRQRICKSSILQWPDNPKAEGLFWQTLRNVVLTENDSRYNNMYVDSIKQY
Put plainly: TLR8 inhibition reporter assay (HEK-Blue SEAP reporter, R848 stimulation). The note with it: HEK-Blue cells overexpressing human TLR8, SEAP reporter, R848 15.9 μM, 22 hour incubation. As for the experimental part:
as §1, §2
On the technique in general: A reporter such as luciferase makes a cellular process visible.

The target of assay [3] is T3, human TLR9 (Homo sapiens, UniProt Q9NR96).
T3 construct: host or cells: HEK-Blue cells
T3 sequence (Q9NR96 26-1032): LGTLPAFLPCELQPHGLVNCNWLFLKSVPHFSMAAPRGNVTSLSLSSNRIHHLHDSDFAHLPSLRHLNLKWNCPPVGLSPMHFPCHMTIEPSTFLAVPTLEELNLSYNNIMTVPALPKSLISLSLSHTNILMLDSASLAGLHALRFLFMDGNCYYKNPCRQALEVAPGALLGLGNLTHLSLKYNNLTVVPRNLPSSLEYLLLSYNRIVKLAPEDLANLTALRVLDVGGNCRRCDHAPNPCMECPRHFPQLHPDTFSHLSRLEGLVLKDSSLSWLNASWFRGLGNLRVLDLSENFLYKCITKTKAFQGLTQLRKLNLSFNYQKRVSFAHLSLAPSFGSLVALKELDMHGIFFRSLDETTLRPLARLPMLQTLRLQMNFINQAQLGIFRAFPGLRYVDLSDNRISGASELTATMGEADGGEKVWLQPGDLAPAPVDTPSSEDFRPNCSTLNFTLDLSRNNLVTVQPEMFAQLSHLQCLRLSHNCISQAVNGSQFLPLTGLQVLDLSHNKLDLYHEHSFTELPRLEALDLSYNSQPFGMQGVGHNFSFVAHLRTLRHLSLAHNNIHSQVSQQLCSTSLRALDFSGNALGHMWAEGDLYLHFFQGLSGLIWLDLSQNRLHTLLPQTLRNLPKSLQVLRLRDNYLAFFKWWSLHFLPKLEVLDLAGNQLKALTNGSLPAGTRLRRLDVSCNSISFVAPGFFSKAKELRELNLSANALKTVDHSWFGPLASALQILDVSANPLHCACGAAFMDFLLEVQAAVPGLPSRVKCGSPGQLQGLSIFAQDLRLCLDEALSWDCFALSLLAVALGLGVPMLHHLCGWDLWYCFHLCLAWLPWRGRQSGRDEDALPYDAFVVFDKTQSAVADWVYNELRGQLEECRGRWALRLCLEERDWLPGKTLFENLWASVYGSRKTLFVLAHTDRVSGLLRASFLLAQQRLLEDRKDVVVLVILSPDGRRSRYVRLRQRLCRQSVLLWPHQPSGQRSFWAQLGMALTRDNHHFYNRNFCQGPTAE
Put plainly: TLR9 inhibition reporter assay (HEK-Blue SEAP reporter, ODN2006 stimulation). The note with it: HEK-Blue cells overexpressing human TLR9, SEAP reporter, ODN2006 5 nM, 22 hour incubation. The procedure:
as §1, §2

As for `Cc1c(-c2[nH]c3ccc(C4CCNCC4)cc3c2C(C)C)ccc(=O)n1C` [Example 6, 5-(3-isopropyl-5-(piperidin-4-yl)-1H-indol-2-yl)-1,6-dimethylpyridin-2(1H)-one], the half-maximal inhibitory concentration (IC50) is 12.8 nM in assay [1], 13.3 nM in assay [2] and 580 nM in assay [3].

With `Cc1c(-c2[nH]c3ccc(C4CCN(CCC(F)(F)F)CC4)cc3c2C(C)C)cn(C)c(=O)c1Cl` [Example 102, 3-chloro-5-(3-isopropyl-5-(1-(3,3,3-trifluoropropyl)piperidin-4-yl)-1H-indol-2-yl)-1,4-dimethylpyridin-2(1H)-one], the IC50 is 33.2 nM in assay [1], 32.4 nM in assay [2] and at least 50000 nM in assay [3].

As for `Cc1cc(-c2[nH]c3ccc(C4CCN(C5CC(C)OC5=O)CC4)cc3c2C(C)C)cn(C)c1=O` (centres unmarked) [Example 149, 5-(3-isopropyl-5-(1-(5-methyl-2-oxotetrahydrofuran-3-yl)piperidin-4-yl)-1H-indol-2-yl)-1,3-dimethylpyridin-2(1H)-one], the IC50 in assay [1] came out at 16 nM; in assay [2] it was 27.3 nM; in assay [3] it was 23200 nM.

As for `CCn1cc(-c2[nH]c3ccc(C4CCN(C5COC5)CC4)cc3c2C(C)C)c(C)c(C)c1=O` [Example 209, 1-ethyl-5-(3-isopropyl-5-(1-(oxetan-3-yl)piperidin-4-yl)-1H-indol-2-yl)-3,4-dimethylpyridin-2(1H)-one], the IC50 in assay [1] came to 34.3 nM; in assay [2] it was 18 nM; in assay [3] it was 17500 nM.

Consider `COCc1cc(-c2[nH]c3ccc(C4CCN(C5CCOCC5)CC4)cc3c2C(C)C)cn(C)c1=O` [Example 345, 5-(3-isopropyl-5-(1-(tetrahydro-2H-pyran-4-yl)piperidin-4-yl)-1H-indol-2-yl)-3-(methoxymethyl)-1-methylpyridin-2(1H)-one], for which the IC50 in assay [1] was 11.1 nM; in assay [2], 16.9 nM; in assay [3], 7050 nM.

On to `Cc1c(-c2[nH]c3ccc(C4CCN(CC5CCOC5)CC4)cc3c2C(C)C)cn(C)c(=O)c1Cl` (centres unmarked) [Example 255, 3-chloro-5-(3-isopropyl-5-(1-((tetrahydrofuran-3-yl)methyl)piperidin-4-yl)-1H-indol-2-yl)-1,4-dimethylpyridin-2(1H)-one], for which the IC50 in assay [1] worked out at 4.8 nM; in assay [2] it was 2.3 nM; in assay [3], 1820 nM.

For the compound `CCCN1CCC(c2ccc3[nH]c(-c4cc(N5CCCCC5)c(=O)n(C)c4)c(C(C)C)c3c2)CC1` [Example 173, 5-(3-isopropyl-5-(1-propylpiperidin-4-yl)-1H-indol-2-yl)-1-methyl-3-(piperidin-1-yl) pyridin-2(1H)-one], the concentration for half-maximal inhibition (IC50) in assay [2] turned out to be 983 nM; in assay [3], 6610 nM.

Consider `Cc1cc(-c2[nH]c3ccc(C4CCN(CC(=O)NC[C@@H](C)O)CC4)cc3c2C(C)C)cn(C)c1=O` [Example 125, (R)-2-(4-(2-(1,5-dimethyl-6-oxo-1,6-dihydropyridin-3-yl)-3-isopropyl-1H-indol-5-yl)piperidin-1-yl)-N-(2-hydroxypropyl)acetamide], for which the results for the half-maximal inhibitory concentration (IC50) in assay [2] and in assay [3] were 289 nM and at least 50000 nM, respectively.

Take `CC(C)c1c(-c2cc(CCC3CC3)c(=O)n(C)c2)[nH]c2ccc(C3CCNCC3)cc12` [Example 62, 3-(2-cyclopropylethyl)-5-(3-isopropyl-5-(piperidin-4-yl)-1H-indol-2-yl)-1-methylpyridin-2(1H)-one]: the half-maximal inhibitory concentration (IC50) in assay [3] was at least 50000 nM.

Turning to `CC(C)c1c(-c2cc(C(=O)N(C)C)c(=O)n(C)c2)[nH]c2ccc(C3CCNCC3)cc12` [Example 63, 5-(3-isopropyl-5-(piperidin-4-yl)-1H-indol-2-yl)-N,N,1-trimethyl-2-oxo-1,2-dihydropyridine-3-carboxamide], the IC50 in assay [3] was at least 50000 nM.

Regarding `Cc1cc(-c2[nH]c3ccc(C4CCN(CC(=O)NC[C@H](C)O)CC4)cc3c2C(C)C)cn(C)c1=O` [Example 126, (S)-2-(4-(2-(1,5-dimethyl-6-oxo-1,6-dihydropyridin-3-yl)-3-isopropyl-1H-indol-5-yl)piperidin-1-yl)-N-(2-hydroxypropyl)acetamide], the IC50 in assay [2] was 631 nM; in assay [3] it was at least 50000 nM.
